Results: patent US20230234943A1, “TREX1 INHIBITORS AND USES THEREOF” (Tempest Therapeutics, Inc., priority 2020, published 2023)

Each molecule was assayed against T1, Human TREX1 enzyme (amino acids 1-242) (Homo sapiens, UniProt Q9NSU2) (assay: Human TREX1 enzymatic assay with dsDNA native oligonucleotide (Picogreen fluorescence)). Details: 2 mM dithiothreitol in assay buffer; 50 nM dsDNA oligonucleotide; 30 min preincubation at 25° C.; read-out: TREX1/Human + DTT IC50 AVG.
T1 construct: Human TREX1 enzyme (amino acids 1-242)
T1 sequence (Q9NSU2 1-242): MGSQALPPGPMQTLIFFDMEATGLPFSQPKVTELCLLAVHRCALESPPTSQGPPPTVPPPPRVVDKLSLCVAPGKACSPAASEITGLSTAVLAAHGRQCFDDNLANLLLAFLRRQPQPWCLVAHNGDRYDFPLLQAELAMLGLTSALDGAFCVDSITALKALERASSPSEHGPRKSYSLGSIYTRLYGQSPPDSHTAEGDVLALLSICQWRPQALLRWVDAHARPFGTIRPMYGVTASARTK
Format: biochemical
In short: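 Remaining dsDNA quantified by Picogreen fluorescence after EDTA quench, with no-enzyme and DMSO wells as controls. Reactions used 50 nM annealed oligonucleotide for 5–15 min at 25 °C, after a 30 min compound–enzyme preincubation (0.8–0.16 nM TREX1; 2% DMSO; pH 7.7 Tris, 5 mM MgCl2).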

`CCNC(=O)c1ccc2nc(-c3cc(OC)c(O)c(O)c3F)n(C3(C)COC3)c2c1` [Example 262, N-ethyl-2-(2-fluoro-3,4-dihydroxy-5-methoxyphenyl)-1-(3-methyloxetan-3-yl)-1H-benzo[d]imidazole-6-carboxamide] and `COc1cc(-c2nc3ccc(C(=O)NCC4(F)CC4)cc3n2C2(C)COC2)c(F)c(O)c1O` [Example 263, 2-(2-fluoro-3,4-dihydroxy-5-methoxyphenyl)-N-[(1-fluorocyclopropyl)methyl]-1-(3-methyloxetan-3-yl)-1H-1,3-benzodiazole-6-carboxamide.] cannot be ordered by IC50: at most 100 nM for the first, at most 100 nM for the second.

`CCNC(=O)c1ccc2nc(-c3cc(OC)c(O)c(O)c3F)n(C34CC(C3)C4)c2c1` [Example 264, 1-(bicyclo[1.1.1]pentan-1-yl)-N-ethyl-2-(2-fluoro-3,4-dihydroxy-5-methoxyphenyl)-1H-benzo[d]imidazole-6-carboxamide] and `COc1cc(-c2nc3ccc(CO)cc3n2C2(C)COC2)c(F)c(O)c1O` [Example 281, 3-fluoro-4-(6-(hydroxymethyl)-1-(3-methyloxetan-3-yl)-1H-benzo[d]imidazol-2-yl)-6-methoxybenzene-1,2-diol] cannot be ordered by IC50: at most 100 nM for the first, 100 to 1000 nM for the second.

First: COc1cc(-c2nc3ccc(-c4cnn(C)c4)cc3n2C2(C)COC2)c(F)c(O)c1O [Example 265, 3-fluoro-6-methoxy-4-(6-(1-methyl-1H-pyrazol-4-yl)-1-(3-methyloxetan-3-yl)-1H-benzo[d]imidazol-2-yl)benzene-1,2-diol]
Second: COc1cc(-c2nc3ccc(-c4ccnn4C)cc3n2C2(C)COC2)c(F)c(O)c1O [Example 266, 3-fluoro-6-methoxy-4-(6-(1-methyl-1H-pyrazol-5-yl)-1-(3-methyloxetan-3-yl)-1H-benzo[d]imidazol-2-yl)benzene-1,2-diol]
The IC50 of the first is lower: at most 100 nM for the first, 1000 to 10000 nM for the second. The first is the more potent here.

`COc1cc(-c2nc3ccc(-c4ncccn4)cc3n2C2(C)COC2)c(F)c(O)c1O` [Example 267, 3-fluoro-6-methoxy-4-(1-(3-methyloxetan-3-yl)-6-(pyrimidin-2-yl)-1H-benzo[d]imidazol-2-yl)benzene-1,2-diol] and `COc1cc(-c2nc3ccc(-c4ncc(F)cn4)cc3n2C2(C)COC2)c(F)c(O)c1O` [Example 270, 3-fluoro-4-(6-(5-fluoropyrimidin-2-yl)-1-(3-methyloxetan-3-yl)-1H-benzo[d]imidazol-2-yl)-6-methoxybenzene-1,2-diol] cannot be ordered by IC50: at most 100 nM for the first, at most 100 nM for the second.

`COc1cc(-c2nc3cc(C4CCC4)ccc3[nH]2)cc(O)c1O` [Example 268, 5-(5-cyclobutyl-1H-benzo[d]imidazol-2-yl)-3-methoxybenzene-1,2-diol] and `COc1cc(-c2nc3cc(N4CCN(C5CC5)CC4)ccc3[nH]2)cc(O)c1O` [Example 274, 5-(5-(4-cyclopropylpiperazin-1-yl)-1H-benzo[d]imidazol-2-yl)-3-methoxybenzene-1,2-diol] cannot be ordered by IC50: over 100000 nM for the first, over 100000 nM for the second.

`COc1cc(-c2nc3ccc(-c4ccc(F)cn4)cc3n2C2(C)COC2)c(F)c(O)c1O` [Example 269, 3-fluoro-4-(6-(5-fluoropyridin-2-yl)-1-(3-methyloxetan-3-yl)-1H-benzo[d]imidazol-2-yl)-6-methoxybenzene-1,2-diol] and `COc1cc(-c2nc3ccc(-c4ccn[nH]4)cc3n2C2(C)COC2)c(F)c(O)c1O` [Example 295, 3-fluoro-6-methoxy-4-(1-(3-methyloxetan-3-yl)-6-(1H-pyrazol-5-yl)-1H-benzo[d]imidazol-2-yl)benzene-1,2-diol] cannot be ordered by IC50: at most 100 nM for the first, at most 100 nM for the second.

`COc1cc(-c2nc3cc(N4CCOC4=O)ccc3n2C2(C)COC2)c(F)c(O)c1O` [Example 271, 3-(2-(2-fluoro-3,4-dihydroxy-5-methoxyphenyl)-1-(3-methyloxetan-3-yl)-1H-benzo[d]imidazol-5-yl)oxazolidin-2-one] and `COc1cc(-c2nc3ccc(N4CCOC4=O)cc3n2C2(C)COC2)c(F)c(O)c1O` [Example 276, 3-(2-(2-fluoro-3,4-dihydroxy-5-methoxyphenyl)-1-(3-methyloxetan-3-yl)-1H-benzo[d]imidazol-6-yl)oxazolidin-2-one] cannot be ordered by IC50: at most 100 nM for the first, at most 100 nM for the second.

`COc1cc(-c2nc3cc(N4CCC4=O)ccc3n2C2(C)COC2)c(F)c(O)c1O` [Example 272, 1-(2-(2-fluoro-3,4-dihydroxy-5-methoxyphenyl)-1-(3-methyloxetan-3-yl)-1H-benzo[d]imidazol-5-yl)azetidin-2-one] and `COc1cc(-c2nc3cc(N4CCOCC4=O)ccc3n2C2(C)COC2)c(F)c(O)c1O` [Example 275, 4-(2-(2-fluoro-3,4-dihydroxy-5-methoxyphenyl)-1-(3-methyloxetan-3-yl)-1H-benzo[d]imidazol-5-yl)morpholin-3-one] fall in the same range of IC50: 100 to 1000 nM for the first, 100 to 1000 nM for the second.

`COc1cc(-c2nc3cc(N4CCN(C)CC4=O)ccc3n2C2(C)COC2)c(F)c(O)c1O` [Example 273, 1-(2-(2-fluoro-3,4-dihydroxy-5-methoxyphenyl)-1-(3-methyloxetan-3-yl)-1H-benzo[d]imidazol-5-yl)-4-methylpiperazin-2-one] and `COc1cc(-c2nc3cc(N4CCN(C)C(=O)C4)ccc3n2C2(C)COC2)c(F)c(O)c1O` [Example 278, 4-(2-(2-fluoro-3,4-dihydroxy-5-methoxyphenyl)-1-(3-methyloxetan-3-yl)-1H-benzo[d]imidazol-5-yl)-1-methylpiperazin-2-one] cannot be ordered by IC50: 100 to 1000 nM for the first, at most 100 nM for the second.

First: COc1cc(-c2nc3ccc(N4CCOCC4=O)cc3n2C2(C)COC2)c(F)c(O)c1O [Example 277, 4-(2-(2-fluoro-3,4-dihydroxy-5-methoxyphenyl)-1-(3-methyloxetan-3-yl)-1H-benzo[d]imidazol-6-yl)morpholin-3-one]
Second: COc1cc(-c2nc3ccc(-c4ncco4)cc3n2C2(C)COC2)c(F)c(O)c1O [Example 296, 3-fluoro-6-methoxy-4-(1-(3-methyloxetan-3-yl)-6-(oxazol-2-yl)-1H-benzo[d]imidazol-2-yl)benzene-1,2-diol]
The IC50 of the first is higher: 1000 to 10000 nM for the first, at most 100 nM for the second.

Compared with `COc1cc(-c2nc3ccc(C(O)C(F)(F)F)cc3n2C2(C)COC2)c(F)c(O)c1O` (stereo not shown) [Example 280, 3-fluoro-6-methoxy-4-(1-(3-methyloxetan-3-yl)-6-(2,2,2-trifluoro-1-hydroxyethyl)-1H-benzo[d]imidazol-2-yl)benzene-1,2-diol], `COc1cc(-c2nc3ccc(N4CCC4)cc3n2C2COC2)c(F)c(O)c1O` [Example 288, 4-(6-(azetidin-1-yl)-1-(oxetan-3-yl)-1H-benzo[d]imidazol-2-yl)-3-fluoro-6-methoxybenzene-1,2-diol] is higher in IC50: 100 to 1000 nM for the first, 1000 to 10000 nM for the second. The first is the more potent here.

`COc1cc(-c2nc3ccc(N4CCC4)cc3n2C2COC2)c(C)c(O)c1O` [Example 283, 4-(6-(azetidin-1-yl)-1-(oxetan-3-yl)-1H-benzo[d]imidazol-2-yl)-6-methoxy-3-methylbenzene-1,2-diol] and `COc1cc(-c2nc3ccc(N4CCOCC4)cc3n2C2CCOC2)c(C)c(O)c1O` (stereo not shown) [Example 286, 6-methoxy-3-methyl-4-(6-morpholino-1-(tetrahydrofuran-3-yl)-1H-benzo[d]imidazol-2-yl)benzene-1,2-diol] fall in the same range of IC50: 1000 to 10000 nM for the first, 1000 to 10000 nM for the second.

`COc1cc(-c2nc3cc(N4CCC4)ccc3n2C2COC2)cc(O)c1O` [Example 284, 5-(5-(azetidin-1-yl)-1-(oxetan-3-yl)-1H-benzo[d]imidazol-2-yl)-3-methoxybenzene-1,2-diol] and `COc1cc(-c2nc3ccc(N4CCC4)cc3n2C2COC2)cc(O)c1O` [Example 285, 5-(6-(azetidin-1-yl)-1-(oxetan-3-yl)-1H-benzo[d]imidazol-2-yl)-3-methoxybenzene-1,2-diol] fall in the same range of IC50: 1000 to 10000 nM for the first, 1000 to 10000 nM for the second.

First: COc1cc(-c2nc3nc(N4CCOCC4)ccc3n2C2CCOC2)cc(O)c1O (stereo not shown) [Example 287, 3-methoxy-5-(5-morpholino-1-(tetrahydrofuran-3-yl)-1H-imidazo[4,5-b]pyridin-2-yl)benzene-1,2-diol]
Second: COc1cc(-c2nc3nc(N4CCC4)ccc3n2C2CCOC2)cc(O)c1O (stereo not shown) [Example 292, 5-(5-(azetidin-1-yl)-1-(tetrahydrofuran-3-yl)-1H-imidazo[4,5-b]pyridin-2-yl)-3-methoxybenzene-1,2-diol]
The IC50 of the first is higher: over 100000 nM for the first, 10000 to 100000 nM for the second.

First: COc1cc(-c2nc3cc(-c4ccccn4)ccc3[nH]2)c(C)c(O)c1O [Example 289, 6-methoxy-3-methyl-4-[5-(pyridin-2-yl)-1H-1,3-benzodiazol-2-yl]benzene-1,2-diol]
Second: COc1cc(-c2nc3ccccc3n2C23CC(C2)C3)c(C)c(O)c1O [Example 291, 4-(1-(bicyclo[1.1.1]pentan-1-yl)-1H-benzo[d]imidazol-2-yl)-6-methoxy-3-methylbenzene-1,2-diol]
The IC50 of the first is higher: 1000 to 10000 nM for the first, 100 to 1000 nM for the second.

`Cc1c(-c2nc3ccccc3n2C2CCC2)cc(OC(C)C)c(O)c1O` [Example 290, 4-(1-cyclobutyl-1H-1,3-benzodiazol-2-yl)-3-methyl-6-(propan-2-yloxy)benzene-1,2-diol] and `COc1c(C)c(-c2nc3ccccc3n2C2CCC2)c(F)c(O)c1O` [Example 297, 4-(1-cyclobutyl-1H-benzo[d]imidazol-2-yl)-3-fluoro-6-methoxy-5-methylbenzene-1,2-diol] fall in the same range of IC50: 10000 to 100000 nM for the first, 10000 to 100000 nM for the second.

First: COc1cc(-c2nc3cc(N4CCC4)cc(C)c3[nH]2)cc(O)c1O [Example 293, 5-(5-(azetidin-1-yl)-7-methyl-1H-benzo[d]imidazol-2-yl)-3-methoxybenzene-1,2-diol]
Second: COc1cc(-c2nc3cc(N4CC(O)C4)ccc3n2C2COC2)c(F)c(O)c1O [Example 294, 3-fluoro-4-(5-(3-hydroxyazetidin-1-yl)-1-(oxetan-3-yl)-1H-benzo[d]imidazol-2-yl)-6-methoxybenzene-1,2-diol]
The IC50 of the first is higher: over 100000 nM for the first, 1000 to 10000 nM for the second.
